PMC9737983, “Quantification of Paeoniflorin by Fully Validated LC–MS/MS Method: Its Application to Pharmacokinetic Interaction between Paeoniflorin and Verapamil” (Molecules, 2022)
Read-outs that look alike come from different tables or passages of the source.

Legend:
[1] = parameters: method as in PMID 31400507; conditions: cited from earlier work; for BCS class: classic BCS, everted gut sac assay
[2] = Caco-2 Transwell transport of PF with and without verapamil; type: in vitro ADME; conditions: human, Caco-2, absence of verapamil
Procedure: (§1) The Caco−2 cells were purchased from ATCC (Manassas, VA, USA) and cultured in a DMEM high-glucose medium with 15% FBS, 1% NEAA, and 100 U/mL penicillin and streptomycin. A total of 1.25 × 10^5 cells/cm^2 were seeded into […] (PET) in 96-well Falcon insert systems for 21–28 days to obtain a confluent cell monolayer. The test compounds were diluted with the transport buffer (HBSS with BSA) obtained from a 10 mM stock solution to a concentration of 10 µM and applied to the apical or basolateral sides of the cell monolayer. The permeation of the test compounds from A to B directions or B to A directions was determined in duplicate over a 120-min incubation period at 37 °C and 5% CO2 with a relative humidity of 95%. In addition, the efflux ratio of each compound was also determined. Test and reference compounds were quantified by LC-MS/MS analysis based on the peak area ratio of analyte/IS. The apparent permeability coefficient, Papp (cm/s), was calculated using the following equation:Papp = (dCr/dt) × Vr/(A × C0) where dCr/dt is the cumulative concentration of the compound in the receiver chamber as a function of time (S); Vr is the solution volume in the receiver chamber (0.1 mL on the apical side and 0.25 mL on the basolateral side); A is the surface area for the transport, i.e., 0.0804 cm^2 for the area of the monolayer and C0 is the initial concentration in the donor chamber. The efflux ratio was calculated using the following equation:Efflux Ratio = Papp BA/Papp AB where Papp BA is the apparent permeability coefficient obtained from the BL to AP sides (cm/s), and Papp AB is the apparent permeability coefficient obtained from the AP to BL sides (cm/s).

[3] = system: Caco−2 cells; test: as above; type: in vitro ADME; conditions: with/without verapamil, p < 0.05
Procedure: as §1

[4] = Pharmacokinetic study in male SD rats (intravenous, oral, oral co-administration with verapamil); type: in vivo, Sprague–Dawley rats; conditions: for MRT inf: read-out: MRT0–∞; for Vd/F: read-out: Vz/F
Procedure: The animal experiment was approved by the Experimental Animal Ethics Committee of Shanghai University of Traditional Chinese Medicine (the Ethics Number: PZSHUTCM201016015). After 7 days of freely feeding the animals to acclimation, the rats were randomly divided into five groups, including the following: PF at an intravenous dose of 2 mg/kg and intragastric administrations of 5 mg/kg, 10 mg/kg, and 20 mg/kg; PF combined with verapamil at doses of 20 mg/kg and 50 mg/kg, respectively. All groups of PF or PF combined with verapamil were dissolved in saline to be completely dissolved or suspended. Blood samples were collected into EDTA−2K anti-coagulant tubes at projected times (0.083, 0.25, 0.5, 1, 2, 4, and 6 h post-dose) and then immediately centrifuged at 5500 rpm at 4 °C for 10 min to obtain the supernatant. The plasma samples were stored at −20 °C prior to analysis.
The plasma drug concentration of the PF was quantitated, according to the calibration curve, by the ratio of the analyte-to-IS peak areas obtained for each sample. Pharmacokinetic parameters, such as elimination half-life (T1/2), the area under the concentration–time curve from time zero to infinity (AUC0–∞), total body clearance (CL), and volume of distribution (Vz), were analyzed by the non-compartment model using WinNonlin software (Version 8.2). Subsequently, the main pharmacokinetic parameters were analyzed by an independent sample t-test. The oral absolute bioavailability was calculated as prescribed by the following equation: F (%) = (AUCp.o. × Dosei.v.)/(AUCi.v. × Dosep.o.) × 100%.

[5] = Stability of PF in SD rat plasma under storage conditions; type: in vitro ADME; conditions: for Freeze-thaw Stability, Measured Conc. / Bench-top Stability, Measured Conc. / Long-term Stability, Measured Conc.: SD rat plasma; for Freeze-thaw Stability, Measured Conc.: 4 cycles at −20 °C; for Freeze-thaw Stability, Measured Conc. / Bench-top Stability, Measured Conc. / Long-term Stability, Measured Conc. / Autosampler Stability, Measured Conc.: n = 6; for Bench-top Stability, Measured Conc.: room temperature for 16 h; for Long-term Stability, Measured Conc.: −20 °C for 90 days; for Autosampler Stability, Measured Conc.: extracted SD rat plasma, 10 °C for 72 h
Procedure: Stability in the plasma was tested by comparing the two-level QC samples (LQC and HQC) in sextuplicate injections to theoretical concentrations.
The stability of PF in rat plasma was investigated by analyzing QC samples at […]. Long-term stability was tested at −20 °C for at least 30 days; short-term stability was tested at room temperature for at least 6 h; the post-preparative stability test was conducted at 10 °C for 72 […] The determined concentrations should be within ±15% of the nominal concentrations.

[6] = system: Caco-2 cell; conditions: Caco-2 monolayer cell; cited from earlier work
[7] = male, Sprague-Dawley, rat, plasma, iv, 2 mg/kg, intravenous 2 mg/kg, n = 5
[8] = male, Sprague-Dawley, rat, plasma, po, 5 mg/kg, oral mono-administration 5 mg/kg, n = 5
[9] = male, Sprague-Dawley, rat, plasma, po, 10 mg/kg, oral mono-administration 10 mg/kg, n = 5
[10] = male, Sprague-Dawley, rat, plasma, po, 20 mg/kg, oral 20 mg/kg co-administration with verapamil (50 mg/kg), n = 5
[11] = male, Sprague-Dawley, rat, plasma, po, 20 mg/kg, oral mono-administration 20 mg/kg, n = 5
[12] = male, Sprague-Dawley, rat, plasma, po, 20 mg/kg, range over oral doses 5, 10, 20 mg/kg
[13] = male, Sprague-Dawley, rat, plasma, intravenous 2 mg/kg, n = 5
[14] = oral 20 mg/kg with verapamil vs alone, p < 0.05

For O=c1c(O[C@@H]2O[C@H](CO)[C@H](O)[C@H](O)[C@H]2O)c(-c2ccc(O)c(O)c2)oc2cc(O)cc(O)c12 [hyperoside], the BCS class [1] is given as “III/IV”.
In the case of COc1cc2c3c(c1OC)-c1ccccc1C[C@H]3N(C)CC2 [nuciferine], the BCS class [1] is listed as “III/IV”.
For C[C@@H]1O[C@@H](OC[C@H]2O[C@@H](Oc3c(-c4ccc(O)c(O)c4)oc4cc(O)cc(O)c4c3=O)[C@H](O)[C@@H](O)[C@@H]2O)[C@H](O)[C@H](O)[C@H]1O [rutin], the BCS class [1] is listed as “III/IV”.
C[C@@]12C[C@@]3(O)O[C@@H](O1)[C@]1(COC(=O)c4ccccc4)[C@H]3C[C@@]12O[C@@H]1O[C@H](CO)[C@@H](O)[C@H](O)[C@H]1O [PF, paeoniflorin] gave an efflux ratio at 120 min, 10 µM [2] of 1.52, a Papp A→B at 120 min, 10 µM ([2]; 10 µM, 120 min) of 0.17 ×10⁻⁶ cm/s and a Papp B→A at 120 min, 10 µM ([2]; 10 µM, 120 min) of 0.26 ×10⁻⁶ cm/s. For the same molecule, the P-gp substrate status [3] was “may be a substrate for the P-gp efflux transporter”, the AUC(0-inf) [4, 7] was 2400 ± 201 ng·h/mL and the AUC(0-t) [4, 7] was 2400 ± 202 ng·h/mL. The half-life [4, 7] was 54 ± 24 min, the MRT inf [4, 7] was 12 min and the bioavailability ([4]; male, Sprague-Dawley, rat, plasma, po, 5 mg/kg, oral mono-administration 5 mg/kg vs intravenous 2 mg/kg, read-out: F) was 1.3%. The AUC(0-inf) [4, 8] was 74.7 ± 49.1 ng·h/mL, the AUC(0-t) [4, 8] was 64.7 ± 44 ng·h/mL and the CL/F [4, 8] was 1640 mL/min/kg. The Cmax [4, 8] was 42.3 ± 17.5 ng/mL, the Tmax [4, 8] was 30 min and the half-life [4, 8] was 48 ± 24 min. For the same molecule, the MRT inf [4, 8] was 78 ± 30 min, the Vd/F [4, 8] was 85.7 ± 21.1 L/kg and the bioavailability ([4]; male, Sprague-Dawley, rat, plasma, po, 10 mg/kg, oral mono-administration 10 mg/kg vs intravenous 2 mg/kg, read-out: F) was 0.7%. It also gave an AUC(0-inf) [4, 9] of 84 ± 17 ng·h/mL, an AUC(0-t) [4, 9] of 82.3 ± 18.4 ng·h/mL and a CL/F [4, 9] of 2050 mL/min/kg. It also gave a Cmax [4, 9] of 63.4 ± 11.4 ng/mL, a Tmax [4, 9] of 30 min and a half-life [4, 9] of 30 ± 6 min. For the same molecule, the MRT inf [4, 9] was 60 ± 12 min, the Vd/F [4, 9] was 89 ± 7.1 L/kg and the AUC(0-inf) [4, 10] was 892 ± 487 ng·h/mL. For the same molecule, the AUC(0-t) [4, 10] was 882 ± 491 ng·h/mL, the CL/F [4, 10] was 487 mL/min/kg and the Cmax [4, 10] was 464 ± 237 ng/mL. For the same molecule, the Tmax [4, 10] was 42 ± 18 min, the half-life [4, 10] was 42 ± 6 min and the MRT inf [4, 10] was 90 ± 6 min. The Vd/F [4, 10] was 31.5 ± 20.3 L/kg, the bioavailability ([4]; male, Sprague-Dawley, rat, plasma, po, 20 mg/kg, oral 20 mg/kg co-administration with verapamil vs intravenous 2 mg/kg, read-out: F) was 3.7% and the bioavailability ([4]; male, Sprague-Dawley, rat, plasma, po, 20 mg/kg, oral mono-administration 20 mg/kg vs intravenous 2 mg/kg, read-out: F) was 0.6%. For the same molecule, the AUC(0-inf) [4, 11] was 157 ± 65.3 ng·h/mL, the AUC(0-t) [4, 11] was 149 ± 64.8 ng·h/mL and the CL/F [4, 11] was 2420 mL/min/kg. For the same molecule, the Cmax [4, 11] was 100 ± 42.5 ng/mL, the Tmax [4, 11] was 42 ± 18 min and the half-life [4, 11] was 30 ± 6 min. The MRT inf [4, 11] was 72 ± 6 min, the Vd/F [4, 11] was 112 ± 45.7 L/kg and the CL/F [4, 12] was 1640 to 2420 mL/min/kg. For the same molecule, the Tmax [4, 12] was 30 to 42 min, the half-life [4, 12] was 30 to 48 min and the bioavailability ([4]; male, Sprague-Dawley, rat, plasma, po, 20 mg/kg, range over oral doses 5, 10, 20 mg/kg, read-out: absolute oral bioavailability) was 0.6 to 1.3%. It also gave a C0 [4, 13] of 11200 ng/mL, a clearance [4, 13] of 13.3 mL/min/kg and a Vd ([4]; male, Sprague-Dawley, rat, plasma, intravenous 2 mg/kg, n = 5, read-out: Vz) of 0.2 L/kg. It also gave a Cmax ([4]; oral 5 mg/kg) of 42.3 ± 17.5 ng/mL, a Cmax ([4]; oral 10 mg/kg) of 63.4 ± 11.4 ng/mL and a Cmax ([4]; oral 20 mg/kg) of 100 ± 42.5 ng/mL. The “increase of Cmax, co-administration vs mono-administration” value ([4]; oral 20 mg/kg with verapamil vs alone, p < 0.01) was 4.6 times, the “increase of AUC0–t, co-administration vs mono-administration” value [4, 14] was 5.9 times and the “increase of AUC0–∞, co-administration vs mono-administration” value [4, 14] was 5.7 times. The “Tmax, T1/2 and MRT0–∞, co-administration vs mono-administration” value ([4]; oral 20 mg/kg with verapamil vs alone, statistical analysis) was “no significant difference”, the “stability in SD rat plasma” value ([5]; 16 h bench-top, 72 h autosampler, 4 freeze-thaw cycles at −20 °C, 90 days at −20 °C) was “stable” and the “Freeze-thaw Stability, Measured Conc.” value ([5]; nominal 3.0 ng/mL) was 3.14 ± 0.17 ng/mL. For the same molecule, the “Freeze-thaw Stability, Measured Conc.” value ([5]; nominal 1500 ng/mL) was 1662 ± 44.5 ng/mL, the “Bench-top Stability, Measured Conc.” value ([5]; nominal 3.0 ng/mL) was 3.01 ± 0.21 ng/mL and the “Bench-top Stability, Measured Conc.” value ([5]; nominal 1500 ng/mL) was 1538 ± 52.0 ng/mL. The “Long-term Stability, Measured Conc.” value ([5]; nominal 3.0 ng/mL) was 2.86 ± 0.20 ng/mL, the “Long-term Stability, Measured Conc.” value ([5]; nominal 1500 ng/mL) was 1500 ± 37.4 ng/mL and the “Autosampler Stability, Measured Conc.” value ([5]; nominal 3.0 ng/mL) was 2.91 ± 0.16 ng/mL. For the same molecule, the “Autosampler Stability, Measured Conc.” value ([5]; nominal 1500 ng/mL) was 1535 ± 54.7 ng/mL, the “solubility and permeability characteristics” value [1] was “high solubility and low permeability” and the efflux rate constant [6] was “higher than 2”.
In the case of salvianolic acid B, the BCS class [1] is given as “III/IV”.
